The subject of test [1] is deposition of melanin pigmentation. The test is described as follows: Examination for depigmentation effect: lotion applied to skin after sunlight exposure, judged by the subjects. Format: in vivo. The conditions noted are these: for DEPIGMENTATION EFFECT / DEPI[…]: lotion with 1.0 weight% compound; for effect to prevent the deposition of melanin pigmentation after the skin was exposed to the sunlight: in words, text summary of the tables, test lotions compared with hydroquinone, tranexamic acid and no compound. The method, then: 60 subjects were disposed under sunlight for 4 hours in summer (2 hours × 2 days). The lotions were applied to skin of medial brachia for once in each morning and evening from 5 days after the day when the skin was exposed to the sun light for eight weeks. The one group consists of 10 subjects and six groups were given for the examination in accordance with the following prescriptions. […] The aqueous phase and the alcohol phase were prepared respectively, and both phase were mixed and dissolved. […] X: The number of subjects who judged the result was "extremely effective" and "effective" were less than 30 %. TABLE 1 Depigmentation effect was examined by using the following external preparations for skin in accordance with the above described condition. […] The alcohol phase and aqueous phase were prepared respectively, and both phase were mixed and dissolved. TABLE 3 Depigmentation effect was examined by using the following external preparations for skin in accordance with the above described condition. […] The alcohol phase and aqueous phase were prepared respectively, and both phase were mixed and dissolved.

The subject of the next test is face of subjects. The test can be described thus: Examination for skin care effect: half-face application against comparison 1, judged by the subjects. Type of test: in vivo, women. The method, then: One group of subjects consists of ten women and 3 groups of the subjects were given for the examination.
The effectiveness of three items (moisturising effect, texture of skin surface, maintenance (one day) of moisturising effect) were evaluated according to the following standards.
Ⓞ: The number of subjects who judged the result was "extremely effective" and "effective" were not less than 80 %. ○: The number of subjects who judged the result was "extremely effective" and "effective" were from 50% to 80%. △: The number of subjects who judged the result was "extremely effective" and "effective" were from 30% to 50%. X: The number of subjects who judged the result was "extremely effective " and "effective" were less than 30%.
Skin care effect of the examples was examined in accordance with the above-mentioned condition.

Where [2] appears, read: TABLE 5, same condition as TABLE 1.
[3] abbreviates: TABLE 6, lotion with 1.0 weight% compound, same condition as TABLE 2.
Where [4] appears, read: TABLE 1, skin of medial brachia, morning and evening for eight weeks from 5 days after sunlight exposure (4 hours), 10 subjects per group.
[5] abbreviates: TABLE 3, same condition as TABLE 1.
Setting [6] is: TABLE 2, lotion with 1.0 weight% compound on left half of face, every morning and night for two weeks, ten women per group.
Where [7] appears, read: TABLE 2, maintenance (one day), lotion with 1.0 weight% compound on left half of face, every morning and night for two weeks, ten women per group.
The mark [8] stands for this setting: TABLE 4, lotion with 1.0 weight% compound, same condition as TABLE 2.

The values that follow come from patent EP0604667A1, “TRANEXAMIC ACID DERIVATIVE AND DERMATOLOGIC PREPARATION CONTAINING THE SAME” (SHISEIDO COMPANY LIMITED, priority 1992, dated 1994).

As to “4'-hydroxy phenyl trans-4-aminomethyl cyclohexane carboxylate hydrochloride [EXM.3-2]”, the “DEPIGMENTATION EFFECT” value in test [1] (setting [2]) was “Ⓞ (The number of subjects who judged the result was "extremely effective" and "effective" were not less than 80%.)”. In the test with face of subjects (setting [3]), the “MAINTENANCE OF MOISTURISING EFFECT” value is “Ⓞ (The number of subjects who judged the result was "extremely effective" and "effective" were not less than 80 %.)”; the “MOISTURISING EFFECT” value was “Ⓞ (The number of subjects who judged the result was "extremely effective" and "effective" were not less than 80 %.)”; the “TEXTURE OF SKIN SURFACE” value is “Ⓞ (The number of subjects who judged the result was "extremely effective" and "effective" were not less than 80 %.)”.

In the case of `Oc1ccc(O)cc1` [COMP.2, hydroquinone, reference compound], the “DEPI[…]” value in test [1] (setting [4]) was “△ (The number of subjects who judged the result was "extremely effective" and "effective" were from 30% to 50%.)”; in test [1] (setting [5]) it was “△ (The number of subjects who judged the result was "extremely effective" and "effective" were from 30% to 50%.)”; in test [1] (setting [2]), “△ (The number of subjects who judged the result was "extremely effective" and "effective" were from 30% to 50%.)”.

`NC[C@H]1CC[C@H](C(=O)O)CC1` [COMP.3, tranexamic acid]: the “DEPIGMENTATION EFFECT” value in test [1] (setting [5]) was “○ (The number of subjects who judged the result was "extremely effective" and "effective" were from 50% to 80%.)”; in test [1] (setting [2]), “△ (The number of subjects who judged the result was "extremely effective" and "effective" were from 30% to 50%.)”.

`NC[C@H]1CC[C@H](C(=O)Oc2ccc(O)cc2C(=O)O)CC1` [EXM.1-1, 2-(trans-4-aminomethylcyclohexylcarbonyloxy)-5-hydroxy benzoic acid]: the “DEPIGMENTATION EFFECT” value in test [1] (setting [4]) was “Ⓞ (The number of subjects who judged the result was "extremely effective" and "effective" were not less than 80%.)”. For the same molecule, the “effect to prevent the deposition of melanin pigmentation after the skin was exposed to the sunlight” value (from here on “effect to prevent the deposition”) in test [1] was “excellent”. In the test on face of subjects (setting [6]), the “MOISTURISING EFFECT” value was “Ⓞ (The number of subjects who judged the result was "extremely effective" and "effective" were not less than 80 %.)”; the “TEXTURE OF SKIN SURFACE” value was “Ⓞ (The number of subjects who judged the result was "extremely effective" and "effective" were not less than 80 %.)”. For the same molecule, the “MAINTENANCE OF MOISTURISING EFFECT” value in the test on face of subjects (setting [7]) was “Ⓞ (The number of subjects who judged the result was "extremely effective" and "effective" were not less than 80 %.)”.

For the molecule `NC[C@H]1CC[C@H](C(=O)Oc2ccc(O)c(C(=O)O)c2)CC1` [EXM.1-2, 5-(trans-4-aminomethylcyclohexylcarbonyloxy)-2-hydroxy benzoic acid], in test [1] (setting [4]), the “DEPIGMENTATION EFFECT” value is “Ⓞ (The number of subjects who judged the result was "extremely effective" and "effective" were not less than 80%.)”. Moreover, the “effect to prevent the deposition” value in test [1] was “excellent”. In the test on face of subjects (setting [6]), the “MOISTURISING EFFECT” value is “Ⓞ (The number of subjects who judged the result was "extremely effective" and "effective" were not less than 80 %.)”; the “TEXTURE OF SKIN SURFACE” value is “Ⓞ (The number of subjects who judged the result was "extremely effective" and "effective" were not less than 80 %.)”. Besides, the “MAINTENANCE OF MOISTURISING EFFECT” value in the test on face of subjects (setting [7]) was “Ⓞ (The number of subjects who judged the result was "extremely effective" and "effective" were not less than 80 %.)”.

Take `Cl.NC[C@H]1CC[C@H](C(=O)Oc2ccc(O)cc2C(=O)O)CC1` [EXM.1-3, 2-(trans-4-aminomethylcyclohexylcarbonyloxy)-5-hydroxy benzoic acid hydrochloride]: the “DEPIGMENTATION EFFECT” value in test [1] (setting [4]) was “Ⓞ (The number of subjects who judged the result was "extremely effective" and "effective" were not less than 80%.)”. Also, the “effect to prevent the deposition” value in test [1] is “excellent”. In the test on face of subjects (setting [6]), the “MOISTURISING EFFECT” value is “Ⓞ (The number of subjects who judged the result was "extremely effective" and "effective" were not less than 80 %.)”; the “TEXTURE OF SKIN SURFACE” value was “Ⓞ (The number of subjects who judged the result was "extremely effective" and "effective" were not less than 80 %.)”. Moreover, in the test with face of subjects (setting [7]), the “MAINTENANCE OF MOISTURISING EFFECT” value was “Ⓞ (The number of subjects who judged the result was "extremely effective" and "effective" were not less than 80 %.)”.

`NC[C@H]1CC[C@H](C(=O)NC[C@H]2CC[C@H](C(=O)O)CC2)CC1` [EXM.2-1, Trans-4-(trans-4-aminomethylcyclohexanecarbonyl) aminomethyl cyclohexane carboxylic acid]: the “DEPIGMENTATION EFFECT” value in test [1] (setting [5]) is “Ⓞ (The number of subjects who judged the result was "extremely effective" and "effective" were not less than 80%.)”. In addition, in the test on face of subjects (setting [8]), the “MAINTENANCE OF MOISTURISING EFFECT” value is “Ⓞ (The number of subjects who judged the result was "extremely effective" and "effective" were not less than 80 %.)”; the “MOISTURISING EFFECT” value is “Ⓞ (The number of subjects who judged the result was "extremely effective" and "effective" were not less than 80 %.)”; the “TEXTURE OF SKIN SURFACE” value was “Ⓞ (The number of subjects who judged the result was "extremely effective" and "effective" were not less than 80 %.)”.

Turning to `NC[C@H]1CC[C@H](C(=O)Oc2ccc(O)cc2)CC1` [EXM.3-1, 4'-hydroxy phenyl trans-4-aminomethyl cyclohexane carboxylate], the “DEPIGMENTATION EFFECT” value in test [1] (setting [2]) is “Ⓞ (The number of subjects who judged the result was "extremely effective" and "effective" were not less than 80%.)”. Also, in the test on face of subjects (setting [3]), the “MAINTENANCE OF MOISTURISING EFFECT” value is “Ⓞ (The number of subjects who judged the result was "extremely effective" and "effective" were not less than 80 %.)”; the “MOISTURISING EFFECT” value was “Ⓞ (The number of subjects who judged the result was "extremely effective" and "effective" were not less than 80 %.)”; the “TEXTURE OF SKIN SURFACE” value was “Ⓞ (The number of subjects who judged the result was "extremely effective" and "effective" were not less than 80 %.)”.
